# Data taken from patent US8859543B2, “Imidazo[1,2-a]pyrazine derivatives and their use for the prevention or treatment of neurological, psychiatric and metabolic disorders and diseases” (Janssen Pharmaceutica NV, priority 2010, dated 2014).
# Read-outs that look alike come from different tables or passages of the source.
# How the values were obtained:
# PDE7A = PDE7A (Homo sapiens, UniProt Q13946); experiment: In vitro PDE selectivity assay, PDE7A; assay type: biochemical; conditions: Table 4a in vitro selectivity; read-out: IC50 PDE type 7A
# Description: (§1) Rat recombinant PDE10A (rPDE10A2) was expressed in Sf9 cells using a recombinant rPDE10A baculovirus construct. Cells were harvested after 48 h of infection and the rPDE10A protein was purified by metal chelate chromatography on Ni-sepharose 6FF. […] The reaction was incubated for 60 min. at RT. […] After sedimentation of the beads during 30 min. the radioactivity was measured in a Perkin Elmer Topcount scintillation counter and results were expressed as cpm. For blank values the enzyme was omitted from the reaction and replaced by incubation buffer. […] The same assay principle is applied for the measurement of the affinity of the compound for other members of the PDE family with appropriate modifications in incubation buffer, substrate concentration, incubation time and stop solution.
# PDE6AB = PDE6AB (Homo sapiens, UniProt P16499+P35913); experiment: In vitro PDE selectivity assay, PDE6AB; assay type: biochemical; conditions: Table 4a in vitro selectivity; read-out: IC50 PDE type 6AB
# Description: as §1
# PDE8A1 = PDE8A1 (Homo sapiens, UniProt O60658); experiment: In vitro PDE selectivity assay, PDE8A; assay type: biochemical; conditions: Table 4a in vitro selectivity; read-out: IC50 PDE type 8A
# Description: as §1
# PDE9A = PDE9A (Homo sapiens, UniProt O76083); experiment: In vitro PDE selectivity assay, PDE9A; assay type: biochemical; conditions: Table 4a in vitro selectivity; read-out: IC50 PDE type 9A
# Description: as §1
# [1] = molecular target: T1, Rat recombinant PDE10A (rPDE10A2) (Rattus norvegicus, UniProt Q9QYJ6); experiment: In vitro assay PDE10A (SPA, 3H-cAMP); assay type: biochemical
# T1 construct: made in house; host or cells: Sf9 insect cells, baculovirus
# T1 sequence (Q9QYJ6 1-794): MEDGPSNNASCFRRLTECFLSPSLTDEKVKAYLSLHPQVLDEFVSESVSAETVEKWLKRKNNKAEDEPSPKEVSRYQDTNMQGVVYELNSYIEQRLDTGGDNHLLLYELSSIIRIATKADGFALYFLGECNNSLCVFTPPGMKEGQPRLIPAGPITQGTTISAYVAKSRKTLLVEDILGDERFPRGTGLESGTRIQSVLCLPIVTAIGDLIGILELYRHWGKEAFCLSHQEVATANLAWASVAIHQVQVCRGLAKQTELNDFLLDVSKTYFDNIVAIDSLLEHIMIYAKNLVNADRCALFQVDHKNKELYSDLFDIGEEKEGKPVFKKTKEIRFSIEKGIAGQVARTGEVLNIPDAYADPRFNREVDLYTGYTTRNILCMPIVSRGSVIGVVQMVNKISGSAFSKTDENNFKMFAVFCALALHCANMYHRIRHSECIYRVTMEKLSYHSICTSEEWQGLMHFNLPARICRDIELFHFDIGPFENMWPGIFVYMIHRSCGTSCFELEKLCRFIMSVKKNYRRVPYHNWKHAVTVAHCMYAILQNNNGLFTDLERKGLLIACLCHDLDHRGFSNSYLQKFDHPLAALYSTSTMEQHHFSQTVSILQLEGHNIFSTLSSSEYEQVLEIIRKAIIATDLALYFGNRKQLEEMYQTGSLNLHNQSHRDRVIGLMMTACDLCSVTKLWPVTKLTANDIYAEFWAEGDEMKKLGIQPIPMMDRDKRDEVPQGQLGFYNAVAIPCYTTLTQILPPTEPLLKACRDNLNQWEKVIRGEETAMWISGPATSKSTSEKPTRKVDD
# Method in brief: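 Purified Sf9-expressed rat PDE10A2 incubated 60 min at RT with 60 nM cAMP plus 0.008 μCi 3H-cAMP in 50 mM Tris pH 7.8, 8.3 mM MgCl2, 1.7 mM EGTA, 1% DMSO final. Product quantified by scintillation proximity counting against no-enzyme blanks and DMSO controls.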
# [2] = tested on: apomorphine-induced stereotypy; experiment: Apomorphine-induced stereotypy in rats (APO); assay type: in vivo; conditions: Rattus norvegicus, read-out: APO ED50
# Description: Apomorphine-Induced Stereotypy in Rats (APO)
# Apomorphine (1.0 mg/kg, i.v.)-induced stereotypy (compulsive sniffing, licking, chewing) was scored every 5 min. over the first hour after injection of apomorphine, following a 1 hour interval pre-treatment with the test compound. The score system was: (3) pronounced, (2) moderate, (1) slight, and (O) absent.
# PDE5A = PDE5A (Homo sapiens, UniProt O76074); experiment: In vitro PDE selectivity assay, PDE5A; assay type: biochemical; conditions: Table 4a in vitro selectivity; read-out: IC50 PDE type 5A
# Description: as §1
# PDE2A = PDE2A (Homo sapiens, UniProt O00408); experiment: In vitro PDE selectivity assay, PDE2A; assay type: biochemical; conditions: Table 4a in vitro selectivity; read-out: IC50 PDE type 2A
# Description: as §1
# [3] = tested on: SCH-23390-induced hypolocomotion; experiment: SCH-23390-induced hypolocomotion in mice; assay type: in vivo; conditions: Mus musculus; male NMRI mice, pretreated 0.5 h earlier; criterion total distance >2500 counts; read-out: ED50 reversal of SCH-23390-induced hypolocomotion
# Description: SCH-23390-Induced Hypolocomotion in Mice
# SCM-23390 (0.08 mg/kg, i.v.)-induced hypolocomotion was evaluated over a 30-min period starting immediately after the SCH-23390 challenge in male NMRI mice pretreated 0.5 h earlier with test compound or solvent. Averaged activity in solvent-treated control mice was 1540±559 counts (mean±SD; n=103). Criterion for drug-induced reversal of the SCH-23390-induced hypolocomotion: total distance: >2500 counts (2.9% false positives in controls).
# Chain of PDE2A (O00408 whole entry, species assumed): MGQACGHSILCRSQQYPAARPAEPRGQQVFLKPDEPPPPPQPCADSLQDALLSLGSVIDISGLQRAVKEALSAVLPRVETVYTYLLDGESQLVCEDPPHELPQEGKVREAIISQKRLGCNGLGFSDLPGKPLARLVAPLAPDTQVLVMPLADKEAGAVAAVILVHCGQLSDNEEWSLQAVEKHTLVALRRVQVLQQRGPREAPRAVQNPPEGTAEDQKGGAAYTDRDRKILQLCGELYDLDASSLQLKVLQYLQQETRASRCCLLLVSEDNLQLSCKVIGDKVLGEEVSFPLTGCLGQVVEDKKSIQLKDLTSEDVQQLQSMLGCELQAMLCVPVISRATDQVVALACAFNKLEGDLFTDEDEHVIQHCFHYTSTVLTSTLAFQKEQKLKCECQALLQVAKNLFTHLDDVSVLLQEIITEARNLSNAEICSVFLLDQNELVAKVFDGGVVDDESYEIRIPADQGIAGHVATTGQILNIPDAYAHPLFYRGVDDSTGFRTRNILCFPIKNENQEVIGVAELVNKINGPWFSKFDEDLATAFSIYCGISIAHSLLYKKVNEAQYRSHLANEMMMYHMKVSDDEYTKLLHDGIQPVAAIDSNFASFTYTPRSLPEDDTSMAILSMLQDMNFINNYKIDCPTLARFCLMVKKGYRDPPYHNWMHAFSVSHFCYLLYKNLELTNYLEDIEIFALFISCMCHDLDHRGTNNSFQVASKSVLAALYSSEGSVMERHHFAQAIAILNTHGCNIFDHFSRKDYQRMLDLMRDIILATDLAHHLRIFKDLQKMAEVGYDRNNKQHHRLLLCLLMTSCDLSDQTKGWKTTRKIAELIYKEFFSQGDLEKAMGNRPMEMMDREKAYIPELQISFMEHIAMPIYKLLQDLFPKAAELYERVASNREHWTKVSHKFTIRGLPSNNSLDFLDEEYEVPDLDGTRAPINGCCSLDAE
# Chain of PDE7A (Q13946 whole entry, species assumed): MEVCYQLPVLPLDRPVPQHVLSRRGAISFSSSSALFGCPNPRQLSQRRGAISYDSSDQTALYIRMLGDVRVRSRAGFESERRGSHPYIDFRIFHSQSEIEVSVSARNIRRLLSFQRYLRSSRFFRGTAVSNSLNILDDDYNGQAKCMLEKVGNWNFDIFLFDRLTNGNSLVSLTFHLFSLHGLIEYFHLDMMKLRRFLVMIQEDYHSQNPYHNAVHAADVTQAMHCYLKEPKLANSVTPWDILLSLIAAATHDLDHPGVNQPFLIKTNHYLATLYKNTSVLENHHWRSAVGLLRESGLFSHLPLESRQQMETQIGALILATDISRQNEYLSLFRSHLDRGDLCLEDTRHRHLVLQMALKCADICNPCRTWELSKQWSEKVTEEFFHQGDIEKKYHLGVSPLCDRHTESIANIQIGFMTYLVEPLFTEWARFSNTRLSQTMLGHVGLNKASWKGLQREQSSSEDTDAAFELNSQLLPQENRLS
# Chain of PDE8A1 (O60658 whole entry, species assumed): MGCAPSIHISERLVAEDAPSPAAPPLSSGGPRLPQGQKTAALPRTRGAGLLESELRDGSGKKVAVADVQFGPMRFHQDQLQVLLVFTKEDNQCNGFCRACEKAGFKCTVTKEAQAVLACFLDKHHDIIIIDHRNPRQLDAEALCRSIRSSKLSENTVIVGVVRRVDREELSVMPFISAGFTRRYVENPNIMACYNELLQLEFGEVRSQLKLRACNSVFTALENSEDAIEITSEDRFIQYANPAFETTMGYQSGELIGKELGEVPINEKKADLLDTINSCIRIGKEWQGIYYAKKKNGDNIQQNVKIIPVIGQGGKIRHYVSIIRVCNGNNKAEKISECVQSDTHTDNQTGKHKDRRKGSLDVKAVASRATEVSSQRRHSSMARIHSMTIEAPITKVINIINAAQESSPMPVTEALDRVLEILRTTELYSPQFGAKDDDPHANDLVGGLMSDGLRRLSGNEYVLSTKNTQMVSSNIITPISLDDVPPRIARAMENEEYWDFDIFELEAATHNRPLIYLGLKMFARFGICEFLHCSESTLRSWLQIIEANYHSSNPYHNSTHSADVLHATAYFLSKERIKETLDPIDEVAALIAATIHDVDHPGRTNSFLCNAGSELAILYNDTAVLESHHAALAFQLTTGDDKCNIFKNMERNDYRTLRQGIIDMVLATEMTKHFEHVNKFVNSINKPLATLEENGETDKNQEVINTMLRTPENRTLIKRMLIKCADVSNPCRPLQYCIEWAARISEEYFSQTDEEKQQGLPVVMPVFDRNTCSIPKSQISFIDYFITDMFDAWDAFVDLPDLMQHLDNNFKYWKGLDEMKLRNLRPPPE
# Chain of PDE9A (O76083 whole entry): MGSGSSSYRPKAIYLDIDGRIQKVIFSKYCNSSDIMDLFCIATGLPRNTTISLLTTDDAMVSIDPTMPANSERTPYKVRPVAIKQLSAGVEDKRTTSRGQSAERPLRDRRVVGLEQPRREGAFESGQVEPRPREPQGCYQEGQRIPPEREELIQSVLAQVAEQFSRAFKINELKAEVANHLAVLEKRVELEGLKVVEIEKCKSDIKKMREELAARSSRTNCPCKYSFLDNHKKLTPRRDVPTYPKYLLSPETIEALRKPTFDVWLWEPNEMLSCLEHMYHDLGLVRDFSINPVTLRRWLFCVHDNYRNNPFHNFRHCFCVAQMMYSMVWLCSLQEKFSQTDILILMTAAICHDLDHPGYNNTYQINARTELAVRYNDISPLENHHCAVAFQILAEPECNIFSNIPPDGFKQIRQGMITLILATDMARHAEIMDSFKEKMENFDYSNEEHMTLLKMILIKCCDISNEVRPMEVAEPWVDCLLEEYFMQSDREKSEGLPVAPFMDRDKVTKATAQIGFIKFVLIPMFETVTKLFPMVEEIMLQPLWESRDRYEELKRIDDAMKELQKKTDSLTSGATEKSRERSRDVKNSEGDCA
# Chain of PDE6AB (P16499 whole entry): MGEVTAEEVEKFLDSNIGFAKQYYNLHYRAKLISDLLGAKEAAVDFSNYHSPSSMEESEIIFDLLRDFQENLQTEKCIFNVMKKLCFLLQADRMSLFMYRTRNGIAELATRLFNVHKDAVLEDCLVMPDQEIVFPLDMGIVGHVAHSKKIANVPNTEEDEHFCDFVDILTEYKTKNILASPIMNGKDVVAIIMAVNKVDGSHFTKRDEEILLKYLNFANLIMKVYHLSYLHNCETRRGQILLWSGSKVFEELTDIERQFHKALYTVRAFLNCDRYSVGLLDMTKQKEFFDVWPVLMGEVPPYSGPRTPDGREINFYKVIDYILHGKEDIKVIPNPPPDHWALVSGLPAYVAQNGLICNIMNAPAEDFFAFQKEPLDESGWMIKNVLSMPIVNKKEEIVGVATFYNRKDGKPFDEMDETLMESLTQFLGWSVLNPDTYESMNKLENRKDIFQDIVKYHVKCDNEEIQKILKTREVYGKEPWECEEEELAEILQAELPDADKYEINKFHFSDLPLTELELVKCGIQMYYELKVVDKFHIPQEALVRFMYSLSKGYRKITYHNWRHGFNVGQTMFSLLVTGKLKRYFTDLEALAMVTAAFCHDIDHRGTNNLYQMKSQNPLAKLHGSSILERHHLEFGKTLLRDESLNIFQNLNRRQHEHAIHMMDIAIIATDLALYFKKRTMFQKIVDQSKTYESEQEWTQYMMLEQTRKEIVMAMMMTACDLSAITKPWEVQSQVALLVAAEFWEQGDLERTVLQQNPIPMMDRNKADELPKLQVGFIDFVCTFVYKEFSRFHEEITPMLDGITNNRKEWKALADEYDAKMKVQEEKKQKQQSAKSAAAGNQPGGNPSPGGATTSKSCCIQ
# Chain of PDE6AB (P35913 whole entry): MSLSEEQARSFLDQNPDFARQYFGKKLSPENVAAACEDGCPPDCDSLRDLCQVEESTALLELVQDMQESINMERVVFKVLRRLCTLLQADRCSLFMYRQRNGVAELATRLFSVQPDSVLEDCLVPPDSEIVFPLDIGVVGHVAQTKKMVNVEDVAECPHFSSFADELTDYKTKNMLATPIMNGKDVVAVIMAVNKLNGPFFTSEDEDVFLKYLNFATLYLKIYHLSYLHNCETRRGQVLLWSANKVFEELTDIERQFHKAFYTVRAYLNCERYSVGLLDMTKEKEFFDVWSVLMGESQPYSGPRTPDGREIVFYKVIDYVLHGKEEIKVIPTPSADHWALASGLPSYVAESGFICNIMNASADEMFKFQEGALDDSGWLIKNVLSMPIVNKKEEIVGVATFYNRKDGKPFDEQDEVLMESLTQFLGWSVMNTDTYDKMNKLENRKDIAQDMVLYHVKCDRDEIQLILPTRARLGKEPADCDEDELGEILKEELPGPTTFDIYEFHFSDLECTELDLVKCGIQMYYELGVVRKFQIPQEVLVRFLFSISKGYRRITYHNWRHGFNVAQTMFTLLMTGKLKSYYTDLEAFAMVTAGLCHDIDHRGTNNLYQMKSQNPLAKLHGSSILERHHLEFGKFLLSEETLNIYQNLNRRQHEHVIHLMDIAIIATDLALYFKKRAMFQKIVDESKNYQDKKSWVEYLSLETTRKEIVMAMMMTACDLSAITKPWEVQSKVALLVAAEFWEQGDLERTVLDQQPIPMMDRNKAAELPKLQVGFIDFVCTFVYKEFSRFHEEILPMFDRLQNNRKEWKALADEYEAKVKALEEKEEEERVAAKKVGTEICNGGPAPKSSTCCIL
smiles,measurement,setting,value
"Cc1nc2c(N3CCOCC3)nccn2c1-c1ccc(C2CCOCC2)nc1 [compound 25, 2-Methyl-8-morpholin-4-yl-3-[6-(tetrahydro-pyran-4-yl)-pyridin-3-yl]-imidazo[1,2-a]pyrazine]",IC50,PDE7A,> 100 µM
same,IC50,PDE6AB,96.5 µM
same,IC50,PDE8A1,> 100 µM
same,IC50,PDE9A,> 100 µM
same,IC50,"[1]; Table 4a in vitro selectivity, read-out: IC50 PDE type 10A",0.16 µM
same,IC50,"[1]; pIC50 corresponds to the -log IC50 expressed in mol/L, read-out: PDE10A2 pIC50 (converted)",0.191 µM
same,ED50,[2],1.2 mg/kg
same,IC50,PDE5A,33.9 µM
same,IC50,PDE2A,42.7 µM
same,ED50,[3],7.1 mg/kg
